Experimental data from ChEMBL document CHEMBL1201862, “PubChem BioAssay data set” (2004).
One block for each compound: values may come before it. Active and inactive are the calls of the source.

What was measured:
Cytochrome P450 3A4 = Cytochrome P450 3A4 (Homo sapiens, UniProt P08684);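 note: CYP3A4 tested as one member of a cytochrome P450 panel screen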
[1] = target: T1, Low molecular weight phosphotyrosine protein phosphatase (Homo sapiens, UniProt P24666); format: functional; conditions: read-out: IC50_Mean;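 note: Dose-response confirmation assay measuring inhibition of LMPTP enzyme activity by fluorescence intensity read-out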
T1 sequence (P24666 whole entry): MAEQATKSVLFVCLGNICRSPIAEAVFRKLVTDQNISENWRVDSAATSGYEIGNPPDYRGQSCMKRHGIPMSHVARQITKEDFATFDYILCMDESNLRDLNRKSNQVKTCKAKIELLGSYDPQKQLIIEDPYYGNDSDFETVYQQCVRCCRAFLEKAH

[2] = HEp-2 cell cytotoxicity, dose response, cytotoxicity control for RSV inhibitor project, HTS (AID 2410); format: functional; conditions: human respiratory syncytial virus
Caspase-3 [3] = target: T2, Caspase-3 (Homo sapiens, UniProt P42574); test: SAR Analysis of small molecule inhibitors of Sentrin-specific proteases (SENPs) using a Caspase-3 Selectivity assay. [Related pubchem assays (depositor defined):AID2540, AID2599, AID434973, AID489001]; format: functional
T2 sequence (P42574 whole entry): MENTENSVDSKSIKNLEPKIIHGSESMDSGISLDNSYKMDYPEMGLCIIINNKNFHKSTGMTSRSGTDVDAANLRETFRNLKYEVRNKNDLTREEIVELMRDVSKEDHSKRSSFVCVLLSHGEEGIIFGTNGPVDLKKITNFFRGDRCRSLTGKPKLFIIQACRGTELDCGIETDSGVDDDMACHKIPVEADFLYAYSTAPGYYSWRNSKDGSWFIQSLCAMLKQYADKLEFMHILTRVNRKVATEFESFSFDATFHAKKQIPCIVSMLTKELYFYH

Caspase-3 [4] = target: T2, Caspase-3; format: functional
[5] = target: T3, Sentrin-specific protease 7 (Homo sapiens, UniProt Q9BQF6); test: SENP7 protease inhibitors, SAR follow-up, biochemical, luminescence (AID 504497); format: functional
T3 sequence (Q9BQF6 whole entry): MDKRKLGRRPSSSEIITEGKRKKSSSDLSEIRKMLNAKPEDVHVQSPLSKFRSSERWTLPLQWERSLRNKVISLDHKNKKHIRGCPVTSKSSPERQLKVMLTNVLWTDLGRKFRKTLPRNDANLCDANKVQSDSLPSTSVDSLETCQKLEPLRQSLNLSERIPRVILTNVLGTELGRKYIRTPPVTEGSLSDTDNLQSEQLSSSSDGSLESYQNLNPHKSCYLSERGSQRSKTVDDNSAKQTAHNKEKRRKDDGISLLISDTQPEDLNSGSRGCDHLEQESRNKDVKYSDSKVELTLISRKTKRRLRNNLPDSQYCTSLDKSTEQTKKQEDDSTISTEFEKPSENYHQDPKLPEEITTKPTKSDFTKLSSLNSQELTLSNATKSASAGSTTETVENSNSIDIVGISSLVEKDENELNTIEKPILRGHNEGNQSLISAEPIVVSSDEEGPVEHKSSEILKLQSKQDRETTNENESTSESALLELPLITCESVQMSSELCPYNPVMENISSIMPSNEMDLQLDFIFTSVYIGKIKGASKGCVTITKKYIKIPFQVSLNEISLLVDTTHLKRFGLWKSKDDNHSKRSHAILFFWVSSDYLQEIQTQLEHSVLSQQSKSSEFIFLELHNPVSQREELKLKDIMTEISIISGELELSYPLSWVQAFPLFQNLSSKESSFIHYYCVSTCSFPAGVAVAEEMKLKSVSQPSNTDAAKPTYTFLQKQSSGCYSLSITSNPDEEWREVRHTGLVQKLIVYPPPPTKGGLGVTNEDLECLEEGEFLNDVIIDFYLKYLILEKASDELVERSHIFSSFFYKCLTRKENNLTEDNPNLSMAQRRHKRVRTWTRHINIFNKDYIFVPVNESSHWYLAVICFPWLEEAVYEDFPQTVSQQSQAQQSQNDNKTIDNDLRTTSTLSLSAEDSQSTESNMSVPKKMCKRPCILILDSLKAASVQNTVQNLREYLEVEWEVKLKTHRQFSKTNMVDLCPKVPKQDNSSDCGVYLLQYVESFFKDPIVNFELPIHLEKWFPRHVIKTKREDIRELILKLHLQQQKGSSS

[6] = target: T4, Sentrin-specific protease 6 (Homo sapiens, UniProt Q9GZR1); test: SAR Analysis of small molecule inhibitors of Sentrin-specific protease 6 (SENP6) using a Luminescent assay. [Related pubchem assays (depositor defined):AID2582, AID2599]; format: functional
T4 sequence (Q9GZR1 whole entry): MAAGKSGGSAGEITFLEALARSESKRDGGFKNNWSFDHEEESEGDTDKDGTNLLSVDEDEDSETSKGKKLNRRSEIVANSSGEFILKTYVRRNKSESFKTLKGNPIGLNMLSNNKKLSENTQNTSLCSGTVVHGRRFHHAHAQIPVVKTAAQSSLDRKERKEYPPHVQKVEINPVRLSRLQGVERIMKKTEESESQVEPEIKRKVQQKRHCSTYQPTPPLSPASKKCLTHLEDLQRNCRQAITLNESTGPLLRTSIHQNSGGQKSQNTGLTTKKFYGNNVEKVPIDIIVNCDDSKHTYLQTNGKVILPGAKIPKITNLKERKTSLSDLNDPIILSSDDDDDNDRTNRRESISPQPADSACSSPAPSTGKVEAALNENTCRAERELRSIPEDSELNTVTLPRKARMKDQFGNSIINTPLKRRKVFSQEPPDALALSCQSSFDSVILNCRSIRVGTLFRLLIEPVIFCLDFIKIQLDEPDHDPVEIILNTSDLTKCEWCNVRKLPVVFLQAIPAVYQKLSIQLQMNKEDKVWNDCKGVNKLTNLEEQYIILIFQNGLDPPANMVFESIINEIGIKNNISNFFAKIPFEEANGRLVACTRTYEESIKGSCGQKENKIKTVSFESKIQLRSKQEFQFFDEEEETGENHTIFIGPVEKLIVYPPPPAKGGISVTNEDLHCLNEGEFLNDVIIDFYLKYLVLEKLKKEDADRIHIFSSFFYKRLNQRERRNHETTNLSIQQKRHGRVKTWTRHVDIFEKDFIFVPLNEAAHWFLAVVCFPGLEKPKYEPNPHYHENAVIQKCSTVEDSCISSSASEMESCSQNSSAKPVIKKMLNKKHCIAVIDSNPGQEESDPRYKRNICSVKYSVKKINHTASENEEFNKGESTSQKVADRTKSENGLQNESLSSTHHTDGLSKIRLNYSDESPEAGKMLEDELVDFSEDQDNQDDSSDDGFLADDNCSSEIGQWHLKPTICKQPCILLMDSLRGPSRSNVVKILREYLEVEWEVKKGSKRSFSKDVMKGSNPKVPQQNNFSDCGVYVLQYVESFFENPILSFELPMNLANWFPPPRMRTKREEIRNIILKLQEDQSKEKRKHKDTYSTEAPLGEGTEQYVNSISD

[7] = target: T3, Sentrin-specific protease 7; format: functional
[8] = target: T5, Sentrin-specific protease 8 (Homo sapiens, UniProt Q96LD8); format: functional;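 note: luminescence read-out of SENP8 inhibition, dose-response confirmation following an ultra-high-throughput screen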
T5 sequence (Q96LD8 whole entry): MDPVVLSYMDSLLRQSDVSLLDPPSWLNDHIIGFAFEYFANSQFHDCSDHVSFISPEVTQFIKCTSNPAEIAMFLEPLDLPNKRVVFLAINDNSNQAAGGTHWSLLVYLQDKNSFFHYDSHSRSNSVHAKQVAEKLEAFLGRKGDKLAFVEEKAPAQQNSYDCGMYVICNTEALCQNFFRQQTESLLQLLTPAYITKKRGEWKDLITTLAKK

[9] = target: T5, Sentrin-specific protease 8; test: SENP8 protease inhibitors, SAR follow-up, biochemical, luminescence (AID 504501); format: functional
[10] = target: T4, Sentrin-specific protease 6; format: functional
Escherichia coli = test: microbe, parasite or virus in culture
[11] = cytotoxicity in HEK-293T cells, dose response, cytotoxicity control for TCR NF-kB inhibitor project, luminescence, T-cell screen hits (AID 489026); format: functional, cell-based;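 note: cells exposed to compound about 14 hours before the viability readout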
[12] = target: T6, Heat shock factor protein 1 (Mus musculus, UniProt P38532); test: inhibition of MG132-induced HSE-luciferase signal, confirmation, cell-based, NIH3T3, luminescence, dose retest (AID 2382); format: functional;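 note: NIH3T3 fibroblasts with HSF1-driven luciferase reporter stressed by proteasome inhibitor MG132; luminescence from HSF1-driven luciferase expression after 8 hours of MG132 stress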
T6 sequence (P38532 whole entry): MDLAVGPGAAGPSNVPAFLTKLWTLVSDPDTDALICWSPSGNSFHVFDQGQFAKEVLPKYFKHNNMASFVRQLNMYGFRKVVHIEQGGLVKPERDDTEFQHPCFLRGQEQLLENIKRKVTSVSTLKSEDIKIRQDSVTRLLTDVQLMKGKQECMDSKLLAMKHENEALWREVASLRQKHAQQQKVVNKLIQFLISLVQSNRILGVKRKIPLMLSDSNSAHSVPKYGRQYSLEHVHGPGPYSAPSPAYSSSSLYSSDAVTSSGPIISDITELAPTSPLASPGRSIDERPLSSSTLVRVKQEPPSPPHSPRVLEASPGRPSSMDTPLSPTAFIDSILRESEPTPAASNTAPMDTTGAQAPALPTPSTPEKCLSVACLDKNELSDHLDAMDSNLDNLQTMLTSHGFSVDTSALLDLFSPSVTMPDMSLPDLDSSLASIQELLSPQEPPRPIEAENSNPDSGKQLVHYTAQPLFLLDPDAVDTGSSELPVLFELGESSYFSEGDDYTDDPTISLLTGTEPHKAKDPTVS

Paired box protein Pax-8 = Paired box protein Pax-8 (Homo sapiens, UniProt Q06710); test: inhibitors of PAX8-driven TPO luciferase reporter, dose response, RMG-I cells, cherry-pick (AID 687027); format: functional, cell-based;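 note: luciferase reporter driven by Pax8 target thyroperoxidase promoter measured by SteadyGlo luminescence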
Paired box protein Pax-8, sequence (Q06710 whole entry): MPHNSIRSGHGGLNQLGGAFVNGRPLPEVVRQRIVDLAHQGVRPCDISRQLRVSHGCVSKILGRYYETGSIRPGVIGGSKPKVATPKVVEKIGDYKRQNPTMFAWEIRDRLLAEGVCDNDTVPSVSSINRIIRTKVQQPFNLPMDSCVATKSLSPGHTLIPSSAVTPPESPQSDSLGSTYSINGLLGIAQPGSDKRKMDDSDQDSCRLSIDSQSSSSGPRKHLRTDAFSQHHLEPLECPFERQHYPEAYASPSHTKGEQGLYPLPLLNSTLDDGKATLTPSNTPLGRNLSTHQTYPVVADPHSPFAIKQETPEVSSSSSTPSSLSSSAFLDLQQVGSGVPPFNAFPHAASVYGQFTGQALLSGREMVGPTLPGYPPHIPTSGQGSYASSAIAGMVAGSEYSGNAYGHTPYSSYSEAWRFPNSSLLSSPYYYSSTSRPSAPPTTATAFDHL

Cytochrome P450 3A4, sequence (P08684 whole entry): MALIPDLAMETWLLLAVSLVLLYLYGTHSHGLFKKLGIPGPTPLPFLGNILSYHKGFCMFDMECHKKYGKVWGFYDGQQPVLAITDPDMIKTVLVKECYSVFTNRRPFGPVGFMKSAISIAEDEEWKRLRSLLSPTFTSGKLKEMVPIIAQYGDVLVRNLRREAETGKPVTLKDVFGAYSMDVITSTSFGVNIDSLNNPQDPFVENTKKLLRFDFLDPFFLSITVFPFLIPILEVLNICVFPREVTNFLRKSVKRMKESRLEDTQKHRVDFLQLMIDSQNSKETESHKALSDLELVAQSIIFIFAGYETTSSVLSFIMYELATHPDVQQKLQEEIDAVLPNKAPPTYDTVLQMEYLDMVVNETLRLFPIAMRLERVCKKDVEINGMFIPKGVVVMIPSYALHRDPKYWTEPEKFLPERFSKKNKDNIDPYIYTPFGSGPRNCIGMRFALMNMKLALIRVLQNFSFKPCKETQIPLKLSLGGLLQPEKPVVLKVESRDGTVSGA

- AC50 (Cytochrome P450 3A4): inconclusive
Structure (SMILES): CS(=O)(=O)N1CCC2(CC1)CN(C(c1ccccc1)c1ccccc1)C2

Structure (SMILES): CCn1cc(C(=O)O)c(=O)c2cc(F)c(N3CCN(C(=O)Nc4ccccc4)CC3)cc21
- IC50 [1]: 73.1 µM (inactive)
- CC50 [2]: > 50 µM (active)
- IC50 (cells): 26.9 µM (active)

- IC50 (Caspase-3 [3]): 1.41 µM (active)
- IC50 (Caspase-3 [4]): > 100 µM (inactive)
- IC50 [5]: 0.896 µM (active)
- IC50 [6]: 0.905 µM (active)
- IC50 [7]: > 100 µM (inactive)
- IC50 [10]: 13.5 µM (active)
Structure (SMILES): CSc1nc2ccc(NC(=O)c3cc4ccccc4o3)cc2s1
- IC50 [8]: 94.3 µM (active)
- IC50 [9]: 0.869 µM (active)

Structure (SMILES): O=C(O)C1C(=O)NCC1c1ccccc1 (stereo not drawn)
- AC50 (Escherichia coli): 24.3 µM (active)

Structure (SMILES): CC(C)NC(=O)N1CCC2(CC1)CCN(C(=O)Oc1ccccc1)CC2
- AC50 (Cytochrome P450 3A4): inconclusive

Structure (SMILES): Cc1nc2scc(-c3ccccc3)c2c(=O)n1/N=C/c1ccco1
- AC50 (Escherichia coli): 23.4 µM (active)

Structure (SMILES): C/N=c1\scc(-c2cccs2)n1/N=C/c1ccccc1O
- IC50 [11]: > 80 µM (inactive)
- EC50 [12]: < 0.16 µM (active)
- AC50 (Paired box protein Pax-8): < 0.26 µM (active)
